# Reference: patent US9051313B2, “Apoptosis signal-regulating kinase inhibitors” (Gilead Sciences, Inc., priority 2012, dated 2015)
# Key:
# [1] = biological target: recombinant human ASK1 kinase (Homo sapiens (Human), UniProt Q99683); experiment: TR-FRET ASK1 kinase assay (HTRF KinEASE-STK); format: biochemical
# Description: Dephosphorylated recombinant human ASK1 kinase was from Gilead Sciences. […] ATP (catalogue # 7724) was from Affymetrix (Santa Clara, Calif.) and test compounds were from Gilead Sciences. HTRF KinEASE™-STK S3 kit was obtained from Cisbio (Bedford, Mass.). All other reagents were of the highest grade commercially available. The assay measures the phosphorylation level of a biotinylated peptide substrate by the ASK1 kinase using HTRF detection (6.1). This is a competitive, time-resolved fluorescence resonance energy transfer (TR-FRET) immunoassay, based on HTRF® KinEASE™-STK manual from Cisbio (6.1). […] Peptide antibody labeled with 1× Eu^3+ Cryptate buffer containing 10 mM EDTA and 125 nM Streptavidin XL665 are added to stop the reaction and phosphorylated peptide substrate is detected using Envision 2103 Multilabeled reader from PerkinElmer. The fluorescence is measured at 615 nm (Cryptate) and 665 nm (XL665) and a ratio of 665 nm/615 nm is calculated for each well. The resulting TR-FRET level (a ratio of 665 nm/615 nm) is proportional to the phosphorylation level. Under these assay conditions, the degree of phosphorylation of peptide substrate was linear with time and concentration for the enzyme. The assay system yielded consistent results with regard to Km and specific activities for the enzyme. For inhibition experiments (IC50 values), activities were performed with constant concentrations of ATP, peptide and several fixed concentrations of inhibitors. […] All enzyme activity data are reported as an average of quadruplicate determination. […] Enzyme activity is expressed as the amount of Phosphate incorporated into substrate peptide from ATP. Range is the maximum y range (no inhibitor, DMSO control) and s is a slope factor (6.2). Results
# [2] = biological target: ASK1 (kinase active, 631-1381 of rat ASK1 cDNA) in 293/AP1-Luc cells (Rattus norvegicus, UniProt A0A8I6AEL0); experiment: ASK1 293 cell-based assay (Cellular EC50), AP-1:luciferase reporter; details: 293/AP1-Luc cells infected with adenovirus expressing ASK1, 24 hours
# Chain of ASK1 (kinase active, 631-1381 of rat ASK1 cDNA) in 293/AP1-Luc cells (A0A8I6AEL0 1-1381): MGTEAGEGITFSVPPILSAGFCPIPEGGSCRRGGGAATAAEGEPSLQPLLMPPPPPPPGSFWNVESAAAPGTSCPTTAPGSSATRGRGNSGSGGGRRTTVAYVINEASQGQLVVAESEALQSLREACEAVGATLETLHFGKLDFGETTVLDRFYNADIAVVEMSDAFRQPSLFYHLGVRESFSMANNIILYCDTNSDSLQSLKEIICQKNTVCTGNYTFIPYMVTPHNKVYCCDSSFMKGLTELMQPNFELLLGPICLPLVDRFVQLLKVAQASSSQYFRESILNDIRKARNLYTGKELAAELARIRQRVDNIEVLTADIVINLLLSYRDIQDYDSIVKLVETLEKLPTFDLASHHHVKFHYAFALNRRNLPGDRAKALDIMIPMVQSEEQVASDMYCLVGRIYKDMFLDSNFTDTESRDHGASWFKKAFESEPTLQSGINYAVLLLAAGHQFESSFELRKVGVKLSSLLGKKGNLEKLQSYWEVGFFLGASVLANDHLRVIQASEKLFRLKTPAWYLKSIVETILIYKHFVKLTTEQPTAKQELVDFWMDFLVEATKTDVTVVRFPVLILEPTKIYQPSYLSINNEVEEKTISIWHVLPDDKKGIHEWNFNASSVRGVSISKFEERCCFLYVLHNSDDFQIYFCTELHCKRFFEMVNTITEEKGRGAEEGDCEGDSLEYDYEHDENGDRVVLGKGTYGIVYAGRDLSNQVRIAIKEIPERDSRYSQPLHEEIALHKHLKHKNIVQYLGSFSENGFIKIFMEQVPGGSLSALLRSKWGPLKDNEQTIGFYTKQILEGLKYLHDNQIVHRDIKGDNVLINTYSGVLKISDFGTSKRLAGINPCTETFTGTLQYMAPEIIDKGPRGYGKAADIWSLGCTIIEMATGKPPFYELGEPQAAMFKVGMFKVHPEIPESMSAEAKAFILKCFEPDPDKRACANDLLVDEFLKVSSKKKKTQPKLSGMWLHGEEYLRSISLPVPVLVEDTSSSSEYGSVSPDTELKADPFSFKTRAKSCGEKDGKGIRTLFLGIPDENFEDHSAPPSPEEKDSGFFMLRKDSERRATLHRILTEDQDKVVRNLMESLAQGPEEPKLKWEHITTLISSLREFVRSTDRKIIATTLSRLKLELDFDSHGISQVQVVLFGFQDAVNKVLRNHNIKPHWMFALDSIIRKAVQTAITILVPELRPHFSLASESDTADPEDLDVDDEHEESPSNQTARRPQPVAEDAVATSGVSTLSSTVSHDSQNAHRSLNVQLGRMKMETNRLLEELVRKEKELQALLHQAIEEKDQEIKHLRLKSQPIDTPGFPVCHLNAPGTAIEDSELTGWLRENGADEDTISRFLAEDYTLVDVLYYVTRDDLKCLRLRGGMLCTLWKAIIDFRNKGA
# Experimental: ASK1 (Apoptosis Signal-Regulating Kinase 1) 293 cell-based assay (Cellular EC50)
# The cellular potency of compounds was assayed in cells stably expressing an AP-1: luciferase reporter construct (293/AP1-Luc cells—Panomics Inc., 6519 Dumbarton Circle, Fremont, Calif.). Cells were infected with an adenovirus expressing kinase active ASK1 (631-1381 of rat ASK1 cDNA), which will activate the AP-1 transcription factor and increase the expression of luciferase. Inhibitors of ASK1 will decrease the enzyme activity of ASK1 and therefore decrease the activity of AP-1 transcription factor and the expression of luciferase.
# 2. Reference Materials • 1. Panomics 293/AP1-Luc stable cell-line product insert. • 2. Promega Steady-Glo Luciferase Assay System product insert. 3. Media Required 3. Complete Growth Medium, “CGM” • a. DMEM (MediaTech) • b. 10% FBS • c. 1% PSG • d. 100 ug/mL HygromycinB 4. Assay Medium, “AM” • a. DMEM (Invitrogen) • b. 25 mM HEPES • c. 1 mM Sodium Pyruvate • d. 1% PSG 4. Methods Maintenance: • 1. 293/AP1-Luc Maintain 293/Acells per vendor's instructions; harvest cells at ˜80% confluence in T150 flasks as follows: • a. Aspirate media, wash gently with ˜12 mL sterile D-PBS, aspirate. • b. Add 5 mL Trypsin-EDTA, tilt gently to coat flask, and incubate ˜5 min. at 37° C. • c. […] Aspirate media from cell pellet, add 20 to 30 mL CGM, resuspend pellet by pipeting 6×, pass through cell strainer to disperse clumps (if necessary), and count cells with hemocytometer. Assay Day 1: 2. Harvest cells as above, except resuspend cell pellet. Count cells and dilute to 1.5×10^5 cells per mL; add adenovirus such that there are 5 infectious forming units per cell. 3. Prime (20 to 30 mL) and plate cells in Greiner poly-D-Lysine coated 384-well plates at 1.2×10^4 cells per well using BioTek uFill (80 uL per well). 4. Immediately dose plates with 0.4 uL of compound dose series (in 100% DMSO) incubate 24 hours in humidified incubator (37° C., 5% CO2). Assay Day 2: 5. Process plates (per manufacturer's instructions) as follows: • a. Set plates in laminar flow hood & uncover for 30 minutes at room temperature to cool. • b. Remove 60 uL of AM from assay wells • c. Add 20 uL per well Steady-Glo Firefly substrate, let sit for 10-20 minutes at room temperature • d. Cover bottom of assay plates with white backing tape. • e. Acquire data on a […] plate reader
# [3] = TR-FRET, 100 μM ATP, 4 nM ASK1 kinase, average of quadruplicate
# [4] = Compounds 6-17, same competitive TR-FRET immunoassay
# Chain of recombinant human ASK1 kinase (Q99683 whole entry): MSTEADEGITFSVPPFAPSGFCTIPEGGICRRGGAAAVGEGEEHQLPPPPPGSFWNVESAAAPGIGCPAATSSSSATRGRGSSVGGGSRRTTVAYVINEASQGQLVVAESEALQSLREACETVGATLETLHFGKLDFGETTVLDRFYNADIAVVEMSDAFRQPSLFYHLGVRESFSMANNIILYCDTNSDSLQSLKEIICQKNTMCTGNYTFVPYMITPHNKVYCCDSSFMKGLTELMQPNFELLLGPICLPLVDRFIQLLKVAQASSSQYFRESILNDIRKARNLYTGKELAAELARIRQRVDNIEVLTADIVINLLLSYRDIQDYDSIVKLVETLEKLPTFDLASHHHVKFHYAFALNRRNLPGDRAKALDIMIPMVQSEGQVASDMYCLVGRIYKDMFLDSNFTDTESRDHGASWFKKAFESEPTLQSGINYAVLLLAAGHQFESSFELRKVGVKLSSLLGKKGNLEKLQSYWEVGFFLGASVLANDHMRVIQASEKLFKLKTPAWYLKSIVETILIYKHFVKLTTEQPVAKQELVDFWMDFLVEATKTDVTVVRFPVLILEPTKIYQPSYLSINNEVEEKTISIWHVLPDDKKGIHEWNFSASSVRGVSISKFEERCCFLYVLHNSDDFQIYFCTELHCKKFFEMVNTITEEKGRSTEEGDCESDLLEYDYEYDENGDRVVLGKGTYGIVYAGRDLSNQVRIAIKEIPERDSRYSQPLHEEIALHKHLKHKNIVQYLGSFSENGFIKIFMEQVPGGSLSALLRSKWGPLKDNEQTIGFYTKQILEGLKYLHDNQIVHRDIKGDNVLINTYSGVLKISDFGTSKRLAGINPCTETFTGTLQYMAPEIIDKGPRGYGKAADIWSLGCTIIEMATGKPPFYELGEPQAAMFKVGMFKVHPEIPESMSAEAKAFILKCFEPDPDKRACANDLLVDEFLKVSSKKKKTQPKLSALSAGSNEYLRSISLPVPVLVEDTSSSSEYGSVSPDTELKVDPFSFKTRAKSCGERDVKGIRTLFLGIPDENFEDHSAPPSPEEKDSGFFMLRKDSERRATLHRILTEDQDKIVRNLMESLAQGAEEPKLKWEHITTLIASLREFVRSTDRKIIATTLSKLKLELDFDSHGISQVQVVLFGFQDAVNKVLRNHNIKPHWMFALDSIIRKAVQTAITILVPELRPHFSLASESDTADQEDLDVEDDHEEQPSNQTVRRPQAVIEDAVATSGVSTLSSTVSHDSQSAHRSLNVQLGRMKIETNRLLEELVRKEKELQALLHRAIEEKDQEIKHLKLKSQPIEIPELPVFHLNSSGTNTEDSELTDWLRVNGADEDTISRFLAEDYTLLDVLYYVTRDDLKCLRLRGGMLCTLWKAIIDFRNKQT
SMILES,"IC50 [1, 3] [nM]",EC50 [2] [nM],"IC50 [1, 4] [nM]"
"O=C(Nc1csc(-c2nncn2C2CC2)n1)c1cc(-n2cnc(C3CC3)c2)c(N2CCOCC2)cn1 [Example 1, 4-(4-cyclopropyl-1H-imidazol-1-yl)-N-(2-(4-cyclopropyl-4H-1,2,4-triazol-3-yl)thiazol-4-yl)-5-morpholinopicolinamide]",1.44,13.2,–
"CC1(O)CN(c2cnc(C(=O)Nc3csc(-c4nncn4C4CC4)n3)cc2-n2cnc(C3CC3)c2)C1 [Example 2, 4-(4-cyclopropyl-1H-imidazol-1-yl)-N-(2-(4-cyclopropyl-4H-1,2,4-triazol-3-yl)thiazol-4-yl)-5-(3-hydroxy-3-methylazetidin-1-yl)picolinamide]",1.58,11.2,–
"C[C@H](n1cnnc1-c1nc(NC(=O)c2cc(-n3cnc(C4CC4)c3)c(N3CCOCC3)cn2)cs1)C(F)(F)F [Example 3, (S)-4-(4-cyclopropyl-1H-imidazol-1-yl)-5-morpholino-N-(2-(4-(1,1,1-trifluoropropan-2-yl)-4H-1,2,4-triazol-3-yl)thiazol-4-yl)picolinamide]",2.62,6.74,–
"C[C@H](n1cnnc1-c1nc(NC(=O)c2cc(-n3cnc(C4CC4)c3)c(N3CC(C)(O)C3)cn2)cs1)C(F)(F)F [Example 4, (S)-4-(4-cyclopropyl-1H-imidazol-1-yl)-5-(3-hydroxy-3-methylazetidin-1-yl)-N-(2-(4-(1,1,1-trifluoropropan-2-yl)-4H-1,2,4-triazol-3-yl)thiazol-4-yl)picolinamide]",1.69,5.21,–
"C[C@H](n1cnnc1-c1nc(NC(=O)c2cc(-n3cnc(C4CC4)c3)c(N(C)C)cn2)cs1)C(F)(F)F [Example 5, (S)-4-(4-cyclopropyl-1H-imidazol-1-yl)-5-(dimethylamino)-N-(2-(4-(1,1,1-trifluoropropan-2-yl)-4H-1,2,4-triazol-3-yl)thiazol-4-yl)picolinamide]",1.88,7.12,–
"O=C(Nc1csc(-c2nncn2C2CC2)n1)c1cc(-n2cnc(C3CC3)c2)c(N2CCC2)cn1 [Example 6, 5-(azetidin-1-yl)-4-(4-cyclopropylimidazol-1-yl)-N-[2-(4-cyclopropyl-1,2,4-triazol-3-yl)-1,3-thiazol-4-yl]pyridine-2-carboxamide]",–,–,2.4
"C[C@H](n1cnnc1-c1nc(NC(=O)c2cc(-n3cnc(C4CC4)c3)c(N3CCC3)cn2)cs1)C(F)(F)F [Example 7, (S)-5-(azetidin-1-yl)-4-(4-cyclopropyl-1H-imidazol-1-yl)-N-(2-(4-(1,1,1-trifluoropropan-2-yl)-4H-1,2,4-triazol-3-yl)thiazol-4-yl)picolinamide]",–,–,1.7
"C[C@H](n1cnnc1-c1nc(NC(=O)c2cc(-n3cnc(C4CC4)c3)c(N3CCCC3)cn2)cs1)C(F)(F)F [Example 8, (S)-4-(4-cyclopropyl-1H-imidazol-1-yl)-5-(pyrrolidin-1-yl)-N-(2-(4-(1,1,1-trifluoropropan-2-yl)-4H-1,2,4-triazol-3-yl)thiazol-4-yl)picolinamide]",–,–,2.2
"O=C(Nc1csc(-c2nncn2C2CC2)n1)c1cc(-n2cnc(C3CC3)c2)c(N2CCCC2)cn1 [Example 9, 4-(4-cyclopropylimidazol-1-yl)-N-[2-(4-cyclopropyl-1,2,4-triazol-3-yl)-1,3-thiazol-4-yl]-5-pyrrolidin-1-ylpyridine-2-carboxamide]",–,–,1.9
"O=C(Nc1csc(-c2nncn2C2CC2)n1)c1cc(-n2cnc(C3CC3)c2)c(N2CCC(O)C2)cn1 (stereo not shown) [Example 10, 4-(4-cyclopropylimidazol-1-yl)-N-[2-(4-cyclopropyl-1,2,4-triazol-3-yl)-1,3-thiazol-4-yl]-5-(3-hydroxypyrrolidin-1-yl)pyridine-2-carboxamide]",–,–,3
"C[C@H](n1cnnc1-c1nc(NC(=O)c2cc(-n3cnc(C4CC4)c3)c(N3CCC(O)C3)cn2)cs1)C(F)(F)F (stereo partly drawn) [Example 11, 4-(4-cyclopropyl-1H-imidazol-1-yl)-5-(3-hydroxypyrrolidin-1-yl)-N-(2-(4-((S)-1,1,1-trifluoropropan-2-yl)-4H-1,2,4-triazol-3-yl)thiazol-4-yl)picolinamide]",–,–,2.2
"O=C(Nc1csc(-c2nncn2C2CC2)n1)c1cc(-n2cnc(C3CC3)c2)c(N2CCCCC2)cn1 [Example 12, 4-(4-cyclopropylimidazol-1-yl)-N-[2-(4-cyclopropyl-1,2,4-triazol-3-yl)-1,3-thiazol-4-yl]-5-piperidin-1-ylpyridine-2-carboxamide]",–,–,2
"C[C@H](n1cnnc1-c1nc(NC(=O)c2cc(-n3cnc(C4CC4)c3)c(N3CCCCC3)cn2)cs1)C(F)(F)F [Example 13, (S)-4-(4-cyclopropyl-1H-imidazol-1-yl)-5-(piperidin-1-yl)-N-(2-(4-(1,1,1-trifluoropropan-2-yl)-4H-1,2,4-triazol-3-yl)thiazol-4-yl)picolinamide]",–,–,0.7
"C[C@H](n1cnnc1-c1nc(NC(=O)c2cc(-n3cnc(C4CC4)c3)c(N3CCC(C)(O)CC3)cn2)cs1)C(F)(F)F [Example 14, (S)-4-(4-cyclopropyl-1H-imidazol-1-yl)-5-(4-hydroxy-4-methylpiperidin-1-yl)-N-(2-(4-(1,1,1-trifluoropropan-2-yl)-4H-1,2,4-triazol-3-yl)thiazol-4-yl)picolinamide]",–,–,1.8
"CC1(O)CCN(c2cnc(C(=O)Nc3csc(-c4nncn4C4CC4)n3)cc2-n2cnc(C3CC3)c2)CC1 [Example 15, 4-(4-cyclopropylimidazol-1-yl)-N-[2-(4-cyclopropyl-1,2,4-triazol-3-yl)-1,3-thiazol-4-yl]-5-(4-hydroxy-4-methylpiperidin-1-yl)pyridine-2-carboxamide]",–,–,2.5
"C[C@H](n1cnnc1-c1nc(NC(=O)c2cc(-n3cnc(C4CC4)c3)c(N3CCN(C)CC3)cn2)cs1)C(F)(F)F [Example 16, (S)-4-(4-cyclopropyl-1H-imidazol-1-yl)-5-(4-methylpiperazin-1-yl)-N-(2-(4-(1,1,1-trifluoropropan-2-yl)-4H-1,2,4-triazol-3-yl)thiazol-4-yl)picolinamide]",–,–,2.1
"CN1CCN(c2cnc(C(=O)Nc3csc(-c4nncn4C4CC4)n3)cc2-n2cnc(C3CC3)c2)CC1 [Example 17, 4-(4-cyclopropylimidazol-1-yl)-N-[2-(4-cyclopropyl-1,2,4-triazol-3-yl)-1,3-thiazol-4-yl]-5-(4-methylpiperazin-1-yl)pyridine-2-carboxamide]",–,–,3.1
